Source: patent publication US10723741B1, “DNA polymerase IIIC inhibitors and use thereof” (Acurx Pharmaceuticals, LLC, priority 2018, dated 2020)
Values after ≈ are worked out from the molar mass of the structure shown. Structures can show the parent of a compound that is named as a salt. Where two headings read alike, the source gives them in different places.

Assays:
Assay type in all cases: cell-based
[1] = test system: Enterococcus faecalis ATCC 29212; experiment: Broth microdilution MIC, E. faecalis ATCC 29212; conditions: read-out: MIC E. faecalis ATCC 29212
Procedure, shortened: (§1)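 Broth microdilution in strain-specific test medium with ~5.0×10^5 cfu/ml inoculum, 1% DMSO and two-fold compound dilutions from 64 to 0.0625 μg/ml. Plates were held 20 hours at 37° C in ambient air. S. pneumoniae colonies were grown beforehand on blood agar in 5% CO2.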

[2] = test system: Enterococcus faecium ATCC 700221 (VRE); experiment: Broth microdilution MIC, E. faecium ATCC 700221 (VRE); set-up: MIC E. faecium ATCC 700221 (VRE): unit: ug/mL; conditions: broth microdilution, 37° C., 20 hours; for MIC: Enterococcus faecium
Procedure, shortened: as §1

[3] = test system: Staphylococcus aureus NRS384 (MRSA); experiment: Broth microdilution MIC, S. aureus NRS384 (MRSA); conditions: broth microdilution, 37° C., 20 hours; for MIC: Staphylococcus aureus
Procedure, shortened: as §1

[4] = test system: Streptococcus pneumoniae ATCC 49619; experiment: Broth microdilution MIC, S. pneumoniae ATCC 49619; conditions: read-out: MIC S. pneumoniae ATCC 49619
Procedure, shortened: as §1

[5] = test system: Staphylococcus aureus ATCC 29213 (MSSA); experiment: Broth microdilution MIC, S. aureus ATCC 29213 (MSSA); conditions: read-out: MIC S. aureus ATCC 29213 (MSSA)
Procedure, shortened: as §1

[6] = test system: Escherichia coli ATCC 25922; experiment: Broth microdilution MIC, E. coli ATCC 25922 (MHIIB w & w/o 4 mM EDTA); conditions: for MIC: Escherichia coli, read-out: MIC E. coli ATCC 25922
Procedure, shortened: as §1

[7] = test system: Bacillus subtilis ATCC 6633; experiment: Broth microdilution MIC, B. subtilis ATCC 6633; conditions: read-out: MIC B. subtilis ATCC 6633
Procedure, shortened: as §1

[8] = ATCC29212, broth microdilution, 37° C., 20 hours
[9] = read-out: MIC E. faecium ATCC 700221 (VRE)
[10] = S. aureus NRS 384, read-out: MIC NRS 384 (MRSA)
[11] = ATCC49619, broth microdilution, 37° C., 20 hours
[12] = broth microdilution, 37° C., 20 hours
[13] = ATCC25922, without EDTA, broth microdilution, 37° C., 20 hours
[14] = with 4 mM EDTA, broth microdilution, 37° C., 20 hours
[15] = ATCC6633, broth microdilution, 37° C., 20 hours

Structure (SMILES) | MIC [1, 8] | MIC [2, 9] | MIC ([2]; MHIIB, read-out: MIC against E. faecium ATCC 700221 (VRE)) | MIC [3, 10] | MIC ([3]; MHIIB, read-out: MIC against S. aureus NRS 384 (MRSA)) | MIC [4, 11] | MIC [5, 12] | MIC [6, 13] | MIC E. coli ATCC 25922 + 4 mM EDTA [6, 14] | MIC [7, 15] | MIC ([3]; read-out: MIC NRS 384 (MRSA)) | MIC ([1]; ATCC29212, 20 h) | MIC E. faecium ATCC 700221 (VRE) [2] | MIC NRS 384 (MRSA) [3] | MIC ([4]; ATCC49619, 20 h) | MIC ([5]; 20 h) | MIC ([6]; ATCC25922, 20 h) | MIC ([7]; ATCC6633, 20 h) | MIC E. coli ATCC 25922 + 4 mM EDTA ([6]; ATCC25922, 20 h)
COCCn1nc(Cl)c2nc(NCc3ccc(Cl)c(Cl)c3)[nH]c(=O)c21 [Compound 304, 3-Chloro-5-((3,4-dichlorobenzyl)amino)-1-(2-methoxyethyl)-1H-pyrazolo[4,3-d]pyrimidin-7(6H)-one] | 2 µg/mL (≈ 4.97 µM) | 0.5 µg/mL (≈ 1.24 µM) | ≤ 1 µg/mL | 1 µg/mL (≈ 2.48 µM) | ≤ 1 µg/mL | 2 µg/mL (≈ 4.97 µM) | 1 µg/mL (≈ 2.48 µM) | > 64 µg/mL | >64 µg/mL | 0.5 µg/mL (≈ 1.24 µM) | – | – | – | – | – | – | – | – | –
O=c1[nH]c(NCc2ccc(F)c(F)c2)nc2cnn(CC3CCO3)c12 (centres unmarked) [Compound 125, 5-((3,4-Difluorobenzyl)amino)-1-(oxetan-2-ylmethyl)-1H-pyrazolo[4,3-d]pyrimidin-7(6H)-one] | 32 µg/mL (≈ 92.1 µM) | 32 µg/mL (≈ 92.1 µM) | – | – | – | 8 µg/mL (≈ 23 µM) | 32 µg/mL (≈ 92.1 µM) | > 64 µg/mL | >64 µg/mL | 32 µg/mL (≈ 92.1 µM) | 32 µg/mL (≈ 92.1 µM) | – | – | – | – | – | – | – | –
O=c1[nH]c(NCc2ccc(Cl)c(Cl)c2)nc2cnn(C3CCN(c4ccncc4)CC3)c12 [Compound 162, 5-((3,4-dichlorobenzyl)amino)-1-(1-(pyridin-4-yl)piperidin-4-yl)-1H-pyrazolo[4,3-d]pyrimidin-7(6H)-one dihydrochloride] | – | – | – | – | – | – | – | – | 8 µg/mL | – | – | 4 µg/mL | 2/2 | 2/4 | 2 µg/mL | 4 µg/mL | > 64 µg/mL | 1 µg/mL | –
Cn1ncc2nc(NCc3nc4ccccc4s3)[nH]c(=O)c21 [Compound 18, 5-((Benzo[d]thiazol-2-ylmethyl)amino)-1-methyl-1H-pyrazolo[4,3-d]pyrimidin-7(6H)-one] | > 64 µg/mL | > 64 µg/mL | – | – | – | > 64 µg/mL | > 64 µg/mL | > 64 µg/mL | >64 µg/mL | > 64 µg/mL | > 64 µg/mL | – | – | – | – | – | – | – | –
Cl.O=C(c1ccccn1)N1CCC(n2ncc3nc(NCc4ccc(Cl)c(Cl)c4)[nH]c(=O)c32)C1 (centres unmarked) [Compound 257, 5-((3,4-Dichlorobenzyl)amino)-1-(1-picolinoylpyrrolidin-3-yl)-1H-pyrazolo[4,3-d]pyrimidin-7(6H)-one] | 8 µg/mL | 4 µg/mL | – | – | – | 4 µg/mL | 4 µg/mL | > 64 µg/mL | >64 µg/mL | 2 µg/mL | 4 µg/mL | – | – | – | – | – | – | – | –
Cn1ncc2nc(NCc3ccc(F)c(F)c3)[nH]c(=O)c21 [Compound 7, 5-((3,4-Difluorobenzyl)amino)-1-methyl-1H-pyrazolo[4,3-d]pyrimidin-7(6H)-one] | 16 µg/mL (≈ 54.9 µM) | 8 µg/mL (≈ 27.5 µM) | – | – | – | 8 µg/mL (≈ 27.5 µM) | 16 µg/mL (≈ 54.9 µM) | > 64 µg/mL | >64 µg/mL | 8 µg/mL (≈ 27.5 µM) | 16 µg/mL (≈ 54.9 µM) | – | – | – | – | – | – | – | –
O=C(O)CCCCn1nc(F)c2nc(NCc3ccc(F)c(F)c3)[nH]c(=O)c21 [Compound 210, 5-(5-((3,4-Difluorobenzyl)amino)-3-fluoro-7-oxo-6,7-dihydro-1H-pyrazolo[4,3-d]pyrimidin-1-yl)pentanoic acid] | 32 µg/mL (≈ 80.9 µM) | 16 µg/mL (≈ 40.5 µM) | – | – | – | 16 µg/mL (≈ 40.5 µM) | 32 µg/mL (≈ 80.9 µM) | > 64 µg/mL | >64 µg/mL | 64 µg/mL (≈ 162 µM) | 64 µg/mL (≈ 162 µM) | – | – | – | – | – | – | – | –
O=C1CCC(Cn2ncc3nc(NCc4ccc(Cl)c(Cl)c4)[nH]c(=O)c32)N1 (centres unmarked) [Compound 93, 5-((3,4-Dichlorobenzyl)amino)-1-((5-oxopyrrolidin-2-yl)methyl)-1H-pyrazolo[4,3-d]pyrimidin-7(6H)-one] | 8 µg/mL (≈ 19.6 µM) | 4 µg/mL (≈ 9.82 µM) | – | – | – | 2 µg/mL (≈ 4.91 µM) | 8 µg/mL (≈ 19.6 µM) | > 64 µg/mL | 64 µg/mL | 4 µg/mL (≈ 9.82 µM) | 16 µg/mL (≈ 39.3 µM) | – | – | – | – | – | – | – | –
N.N.O=c1[nH]c(NCc2ccc(Cl)c(Cl)c2)nc2cnn(CCOCCOCOP(=O)(O)O)c12 [Compound 299, ammonium (2-(2-(5-((3,4-dichlorobenzyl)amino)-7-oxo-6,7-dihydro-1H-pyrazolo[4,3-d]pyrimidin-1-yl)ethoxy)ethoxy)methyl phosphate] | > 64 µg/mL | 16 µg/mL | – | > 64 µg/mL | – | 16 µg/mL | > 64 µg/mL | > 64 µg/mL | – | 64 µg/mL | – | – | – | – | – | – | – | – | >64 µg/mL
COCC(COC)n1ncc2nc(NCc3ccc(Cl)c(Cl)c3)[nH]c(=O)c21 [Compound 106, 5-((3,4-Dichlorobenzyl)amino)-1-(1,3-dimethoxypropan-2-yl)-1H-pyrazolo[4,3-d]pyrimidin-7(6H)-one] | > 64 µg/mL | 32 µg/mL (≈ 77.6 µM) | – | – | – | 32 µg/mL (≈ 77.6 µM) | 64 µg/mL (≈ 155 µM) | > 64 µg/mL | >64 µg/mL | 32 µg/mL (≈ 77.6 µM) | 32 µg/mL (≈ 77.6 µM) | – | – | – | – | – | – | – | –
CNC(=O)C(CCCn1ncc2nc(NCc3ccc(Cl)c(Cl)c3)[nH]c(=O)c21)c1ccccc1 (centres unmarked) [Compound 200, 5-(5-((3,4-dichlorobenzyl)amino)-7-oxo-6,7-dihydro-1H-pyrazolo[4,3-d]pyrimidin-1-yl)-N-methyl-2-phenylpentanamide] | 16 µg/mL (≈ 32 µM) | 8 µg/mL (≈ 16 µM) | – | – | – | 16 µg/mL (≈ 32 µM) | 8 µg/mL (≈ 16 µM) | > 64 µg/mL | >64 µg/mL | 2 µg/mL (≈ 4 µM) | 8 µg/mL (≈ 16 µM) | – | – | – | – | – | – | – | –
O=C(O)CCCCn1nc(F)c2nc(NCc3ccc(Cl)c(Cl)c3)[nH]c(=O)c21 [Compound 209, 5-(5-((3,4-dichlorobenzyl)amino)-3-fluoro-7-oxo-6,7-dihydro-1H-pyrazolo[4,3-d]pyrimidin-1-yl)pentanoic acid] | 4 µg/mL (≈ 9.34 µM) | 1 µg/mL (≈ 2.34 µM) | – | – | – | 4 µg/mL (≈ 9.34 µM) | 8 µg/mL (≈ 18.7 µM) | > 64 µg/mL | >64 µg/mL | 4 µg/mL (≈ 9.34 µM) | 16 µg/mL (≈ 37.4 µM) | – | – | – | – | – | – | – | –
Cn1ncc2nc(NCc3cc(Cl)c(Cl)cn3)[nH]c(=O)c21.O=C(O)C(F)(F)F [Compound 36, 5-(((4,5-Dichloropyridin-2-yl)methyl)amino)-1-methyl-1H-pyrazolo[4,3-d]pyrimidin-7(6H)-one-2,2,2-trifluoroacetate] | > 64 µg/mL | > 64 µg/mL | – | – | – | > 64 µg/mL | > 64 µg/mL | > 64 µg/mL | >64 µg/mL | > 64 µg/mL | > 64 µg/mL | – | – | – | – | – | – | – | –
Cl.Cl.O=c1[nH]c(NCc2ccc(Cl)c(Cl)c2)nc2cnn(C3CCN(CC4CCNCC4)CC3)c12 [Compound 247, 5-((3,4-dichlorobenzyl)amino)-1-(1-(piperidin-4-ylmethyl)piperidin-4-yl)-1H-pyrazolo[4,3-d]pyrimidin-7(6H)-one dihydrochloride] | 32 µg/mL | 32 µg/mL | – | – | – | 8 µg/mL | 32 µg/mL | > 64 µg/mL | 64 µg/mL | 8 µg/mL | 64 µg/mL | – | – | – | – | – | – | – | –
O=c1[nH]c(NCc2ccc(Cl)c(Cl)c2)nc2cnn(CC(O)CO)c12 (centres unmarked) [Compound 75, 5-((3,4-dichlorobenzyl)amino)-1-(2,3-dihydroxypropyl)-1H-pyrazolo[4,3-d]pyrimidin-7(6H)-one] | 16 µg/mL (≈ 41.6 µM) | 8 µg/mL (≈ 20.8 µM) | – | – | – | 4 µg/mL (≈ 10.4 µM) | 16 µg/mL (≈ 41.6 µM) | > 64 µg/mL | >64 µg/mL | 8 µg/mL (≈ 20.8 µM) | 16 µg/mL (≈ 41.6 µM) | – | – | – | – | – | – | – | –
